In US8435987B2, “Pyrazolo-pyridinone and pyrazolo-pyrazinone compounds as P38 modulators and methods of use thereof” (Amgen Inc., priority 2007, dated 2013):
Like-named read-outs stand apart in the source and are kept apart here.

Assays:
[1] = test system: secreted IL-8 by whole blood activated with TNF-α; experiment: Inhibition of TNF-α induced IL-8 in 50% human whole blood; type: cell-based
Experimental: Inhibition of TNF-α Induced IL-8 in 50% Human Whole Blood
Test compounds were evaluated in vitro for the ability to inhibit the production of secreted IL-8 by whole blood activated with TNF-α. Fresh human whole blood was obtained from healthy, non-medicated volunteers in sodium heparin tubes.
Compound Dilution—Assay Procedure
Test compounds are serially diluted 1:3 in DMSO and then diluted 1:250 into R10 (RPMI 1640, 10% human serum AB, 1× pen/strep/glutamine) to the 4× working concentration to be used in the assay. 100 ul heparinized whole blood is plated into wells of 96 well flat bottom plates. 50 ul of either 4× compound or DMSO control (Final DMSO concentration is 0.1%) are added to the appropriate wells. Plates are incubated for 1 hour at 37 degrees Celsius. 50 ul of 4× TNF-α (4 nM TNF-α, for a final concentration of 1 nM) or control (media alone) is added to the appropriate wells (Total volume=200 ul). Plates are incubated overnight (16-18 hours). 100 ul of supernatant is collected and stored in 96-well round bottom polypropylene plates at −80 degrees Celsius or assayed immediately for IL-8.
Cytokines are measured on antibody (Ab) sandwich ECL based 96-well detection plates. 20 ul of supernatant are added to plate and plate is sealed and shaken at RT for 1 hour. 130 ul of detection Ab cocktail is added and plates are sealed and shaken for 1 hour in the dark at RT. Plates are read on MSD Sector HTS instrument. Data are analyzed and IC50 values generated using Activity Base and Xl-fit programs.

[2] = test system: TNF-α secretion by LPS-treated THP1 cells; experiment: Lipopolysaccharide-activated THP1 cell TNF production assay; type: cell-based; details: Homo sapiens, THP-1, 3 hours, read-out: IC50 in the THP-1 cellular TNF production assay
Experimental: Lipopolysaccharide-Activated THP1 Cell TNF Production Assay
THP1 cells were resuspended in fresh THP1 media (RPMI 1640, 10% heat-inactivated FBS, 1×PGS, 1×NEAA, plus 30 μM βME) at a concentration of 1.5×10^6 cells per mL. One hundred microliters of cells per well were plated in a polystyrene 96-well tissue culture plate. 1.5 micrograms per mL of bacterial LPS was prepared in THP1 media and transferred to the first 11 columns of a 96-well polypropylene plate. Column 12 contained only THP1 media for the LO control. Compounds were dissolved in 100% DMSO and serially diluted 3 fold in a polypropylene 96-well microtiter plate (drug plate). Columns 6 and 12 were reserved as controls (HI controls and LO controls respectively) and contained only DMSO. 10 μL of LPS followed by one microliter of inhibitor compound from the drug plate was transferred to the cell plate. The treated cells were induced to synthesize and secrete TNF-α in a 37° C. humidified incubator with 5% CO2 for 3 hours. Fifty microliters of conditioned media was transferred to a 96-well MULTI-ARRAY™ 96-well small spot plate—custom coated with MAB610 containing 100 μL of 2× Read Buffer P supplemented with 0.34 nM AF210NA polyclonal Ab labeled with ruthenium (MSD-Sulfo-TAG™—NHS ester). After an overnight incubation at room temperature with shaking, the reaction was read on the Sector Imager™ 6000. […] The amount of secreted TNF-α in the presence of AMG compounds compared with that in the presence of DMSO vehicle alone (HI control) was calculated using the formula: % control (POC)=(cpd−average LO)/(average HI−averageLO)*100. Data (consisting of POC and inhibitor concentration in μM) was fitted to a 4-parameter equation (y=A+((B−A)/(1+((x/C)^D))), where A is the minimum y (POC) value, B is the maximum y (POC), C is the x (cpd concentration) at the point of inflection and D is the slope factor) using a Levenburg-Marquardt non-linear regression algorithm.

recombinant human p38α = recombinant human p38α (Homo sapiens, UniProt Q16539); experiment: Purified and activated recombinant human p38α HTRF assay; type: biochemical; details: 1 nM p38α, 50 μM ATP, 100 nM GST-ATF2-Avitag, read-out: p3a IC550
Experimental: Purified and Activated Recombinant Human p38α Assay
• Kinase Reaction Buffer: Kinase reaction buffer for p38α HTRF assays consists of 50 mM Tris-pH 7.5, 5 mM MgCl2, 0.1 mg/mL BSA, 100 μM Na3VO4 and 0.5 mM DTT. • HTRF Detection Buffer: HTRF detection buffer contains 100 mM HEPES-pH 7.5, 100 mM NaCl, 0.1% BSA, 0.05% Tween-20, and 10 mM EDTA. • Serial Dilution of Compounds: Compounds were dissolved in 100% DMSO and serially diluted (3 fold, 10 point) in a polypropylene 96-well microtiter plate (drug plate). The final starting concentration of compounds in the p38a enzymatic assays was 1 μM. Columns 6 and 12 (HI controls and LO controls respectively) in the drug plate were reserved as controls and contained only DMSO. • Kinase Reaction: The p38α kinase reactions were carried out in a polypropylene 96-well black round bottom assay plate in total volume of 30 μL kinase reaction buffer. Appropriate concentration of purified and activated enzyme (recombinant human) was mixed with indicated concentration of ATP and 100 nM GST-ATF2-Avitag, in the presence or absence (HI control) of Compound. See table below for actual concentrations. In the absence of substrate, the background was measured as LO control. The reaction was allowed to incubate for 1 hour at RT. • Assay Reagent Concentrations: The final reagent concentrations were 1 nM p38α and 50 μM ATP. […] After 60 minutes incubation at room temperature, the assay plate was read in a Discovery Plate Reader. The wells were excited with coherent 320 nm light and the ratio of delayed ([…] post excitation) emissions at […] (native europium fluorescence) and 665 nm (europium fluorescence transferred to allophycocyanin—an index of substrate phosphorylation) was determined (Park et al, 1999). • Data Analysis: The proportion of substrate phosphorylated in the kinase reaction in the presence of compound compared with that phosphorylated in the presence of DMSO vehicle alone (HI control) was calculated using the formula: % control (POC)=(compound−average LO)/(average HI−average LO)*100. Data (consisting of POC and inhibitor concentration in μM) was fitted to a 4-parameter equation (y=A+((B−A)/(1+((x/C)AD))), where A is the minimum y (POC) value, B is the maximum y (POC), C is the x (compound concentration) at the point of inflection and D is the slope factor, using a Levenburg-Marquardt non-linear regression algorithm.
The inhibition constant (Ki) of the inhibitor was estimated from the IC50 (compound concentration at the point of inflection C) using the Cheng-Prussof equation: Ki=IC50/(1+S/Km), where S is the ATP substrate concentration, and Km is the Michaelis constant for ATP as determined experimentally. All results were expressed as the mean± the standard error of the mean. Data acquisition and non-linear regression algorithms were performed using Activity Base v5.2 and XL-fit software v4.1 respectively. All data was archived using Activity Base v5.2 software.

[3] = Homo sapiens, read-out: IC50, TNF-α induced IL-8 in 50% human whole blood
[4] = 50% human whole blood, TNF-α (1 nM final) induced IL-8, 16-18 hours, read-out: WB TNF/IL8 IC50

Chain of recombinant human p38α (Q16539 whole entry): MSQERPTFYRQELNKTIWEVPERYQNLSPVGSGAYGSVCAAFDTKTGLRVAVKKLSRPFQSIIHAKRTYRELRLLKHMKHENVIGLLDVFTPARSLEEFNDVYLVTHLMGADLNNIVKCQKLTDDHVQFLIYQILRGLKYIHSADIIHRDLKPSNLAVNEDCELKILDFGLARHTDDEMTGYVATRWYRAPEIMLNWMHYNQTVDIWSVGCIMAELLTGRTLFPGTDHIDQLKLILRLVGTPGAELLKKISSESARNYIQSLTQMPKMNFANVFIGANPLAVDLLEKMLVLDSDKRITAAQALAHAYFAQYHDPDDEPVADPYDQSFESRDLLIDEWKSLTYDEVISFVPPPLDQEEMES

SMILES | IC50 [1, 3] | IC50 [2] | IC50 (recombinant human p38α) | IC50 [1, 4]
Cc1ccc2c(NC3CC3)noc2c1-c1nc2cnn(-c3c(F)cccc3F)c2n(C)c1=O [Example 9, 5-(3-(cyclopropylamino)-6-methyl-1,2-benzisoxazol-7-yl)-1-(2,6-difluorophenyl)-7-methyl-1,7-dihydro-6H-pyrazolo[3,4-b]pyrazin-6-one] |  |  |  | 8 nM
Cc1ccc2c(NC3CC3)noc2c1-c1cc2cnn(-c3cc(F)ccc3F)c2n(C)c1=O [Example 6, 5-(3-(cyclopropylamino)-6-methyl-1,2-benzisoxazol-7-yl)-1-(2,5-difluorophenyl)-7-methyl-1,7-dihydro-6H-pyrazolo[3,4-b]pyridin-6-one] | ≤ 100 nM | ≤ 100 nM | 8.9 nM | 1.6 nM
CCn1c(=O)c(-c2c(C)ccc3c(NC4CC4)noc23)cc2cnn(-c3ccccc3F)c21 [Example 7, 5-(3-(cyclopropylamino)-6-methyl-1,2-benzisoxazol-7-yl)-7-ethyl-1-(2-fluorophenyl)-1,7-dihydro-6H-pyrazolo[3,4-b]pyridin-6-one] | ≤ 100 nM | ≤ 100 nM | 2 nM | 1.3 nM

The remaining lines, values ahead:

IC50 [1, 3] | IC50 [2] | IC50 (recombinant human p38α) | IC50 [1, 4] | SMILES
≤ 100 nM | ≤ 100 nM | 28.5 nM |  | CNc1noc2c(-c3nc4cnn(-c5ccc(F)cc5F)c4n(C)c3=O)c(C)ccc12 [Example 2, 1-(2,4-difluorophenyl)-7-methyl-5-(6-methyl-3-(methylamino)benzo[d]isoxazol-7-yl)-1H-pyrazolo[4,3-b]pyrazin-6(7H)-one]
 |  |  | 8.9 nM | Cc1ccc2c(NC3CC3)noc2c1-c1nc2cnn(-c3ccc(F)cc3F)c2n(C)c1=O [Example 10, 5-(3-(cyclopropylamino)-6-methyl-1,2-benzisoxazol-7-yl)-1-(2,4-difluorophenyl)-7-methyl-1,7-dihydro-6H-pyrazolo[3,4-b]pyrazin-6-one]
≤ 100 nM | ≤ 100 nM | 4.4 nM | 1.8 nM | Cc1ccc2c(NC3CC3)noc2c1-c1cc2cnn(-c3ccc(F)cc3F)c2n(C)c1=O [Example 8, 5-(3-(cyclopropylamino)-6-methyl-1,2-benzisoxazol-7-yl)-1-(2,4-difluorophenyl)-7-methyl-1,7-dihydro-6H-pyrazolo[3,4-b]pyridin-6-one]
